PubChem BioAssay (NCI)
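Cultured in 96-well plates, cells were exposed to test compound for 48 hours across five concentrations. TGI is the concentration that stops growth completely.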

Assays:
Experiment in all cases: growth of human tumour cells (NCI), 48 h
[1] = system: 786-0 renal
[2] = system: A549 NSCLC
[3] = system: ACHN renal
[4] = system: BT-549 breast
[5] = system: CAKI-1 renal
[6] = system: CCRF-CEM leukemia
[7] = system: COLO 205 colon
[8] = system: DU-145 prostate
[9] = system: EKVX NSCLC
[10] = system: HCC-2998 colon
[11] = system: HCT-116 colon
[12] = system: HCT-15 colon
[13] = system: HL-60(TB) leukemia
[14] = system: HOP-62 NSCLC
[15] = system: HOP-92 NSCLC
[16] = system: HS 578T breast
[17] = system: HT29 colon
[18] = system: IGROV1 ovarian
[19] = system: K-562 leukemia
[20] = system: KM12 colon
[21] = system: LOX IMVI melanoma
[22] = system: M14 melanoma
[23] = system: MALME-3M melanoma
[24] = system: MCF7 breast
[25] = system: MDA-MB-231 breast
[26] = system: MDA-MB-435
[27] = system: MDA-N
[28] = system: MOLT-4 leukemia
[29] = system: NCI-H226 lung
[30] = system: NCI-H23 lung
[31] = system: NCI-H460 lung
[32] = system: NCI-H522 lung
[33] = system: NCI/ADR-RES ovarian
[34] = system: OVCAR-3 ovarian
[35] = system: OVCAR-4 ovarian
[36] = system: OVCAR-5 ovarian
[37] = system: OVCAR-8 ovarian
[38] = system: PC-3 prostate
[39] = system: RPMI-8226 leukemia
[40] = system: RXF 393 renal
[41] = system: SF-268 CNS
[42] = system: SF-295 CNS
[43] = system: SF-539 CNS
[44] = system: SK-MEL-2 melanoma
[45] = system: SK-MEL-28 melanoma
[46] = system: SK-MEL-5 melanoma
[47] = system: SK-OV-3 ovarian
[48] = system: SN12C renal
[49] = system: SNB-19 CNS
[50] = system: SNB-75 CNS
[51] = system: SR leukemia
[52] = system: SW-620 colon
[53] = system: T-47D breast
[54] = system: TK-10 renal
[55] = system: U251 CNS
[56] = system: UACC-257 melanoma
[57] = system: UACC-62 melanoma
[58] = system: UO-31 renal
[59] = system: A498 renal

Cc1cccc(Nc2nc3ccccc3nc2NS(=O)(=O)c2ccc(N)cc2)c1
TGI [1]: > 100 µM | TGI [2]: > 100 µM | TGI [3]: > 100 µM | TGI [4]: > 100 µM | TGI [5]: > 100 µM | TGI [6]: 57.6 µM | TGI [7]: > 100 µM | TGI [8]: > 100 µM | TGI [9]: > 100 µM | TGI [10]: 67.6 µM | TGI [11]: > 100 µM | TGI [12]: > 100 µM | TGI [13]: > 100 µM | TGI [14]: > 100 µM | TGI [15]: > 100 µM | TGI [16]: > 100 µM | TGI [17]: > 100 µM | TGI [18]: > 100 µM | TGI [19]: > 100 µM | TGI [20]: > 100 µM | TGI [21]: > 100 µM | TGI [22]: > 100 µM | TGI [23]: > 100 µM | TGI [24]: > 100 µM | TGI [25]: > 100 µM | TGI [26]: > 100 µM | TGI [27]: > 100 µM | TGI [28]: 59.5 µM | TGI [29]: > 100 µM | TGI [30]: 53.3 µM | TGI [31]: > 100 µM | TGI [32]: > 100 µM | TGI [33]: > 100 µM | TGI [34]: > 100 µM | TGI [35]: 42.6 µM | TGI [36]: > 100 µM | TGI [37]: > 100 µM | TGI [38]: > 100 µM | TGI [39]: > 100 µM | TGI [40]: 70.5 µM | TGI [41]: > 100 µM | TGI [42]: > 100 µM | TGI [43]: 93.9 µM | TGI [44]: 81.5 µM | TGI [45]: > 100 µM | TGI [46]: > 100 µM | TGI [47]: > 100 µM | TGI [48]: > 100 µM | TGI [49]: > 100 µM | TGI [50]: > 100 µM | TGI [51]: > 100 µM | TGI [52]: > 100 µM | TGI [53]: > 100 µM | TGI [54]: > 100 µM | TGI [55]: 53.8 µM | TGI [56]: > 100 µM | TGI [57]: > 100 µM | TGI [58]: 56.6 µM

C#CCN(Cc1ccc2nc(-c3ccccc3)c(Cl)nc2c1)c1ccc(F)cc1
TGI [1]: > 100 µM | TGI [59]: > 100 µM | TGI [2]: > 100 µM | TGI [3]: > 100 µM | TGI [4]: > 100 µM | TGI [5]: > 100 µM | TGI [6]: > 100 µM | TGI [7]: > 100 µM | TGI [8]: > 100 µM | TGI [9]: > 100 µM | TGI [10]: > 100 µM | TGI [11]: > 100 µM | TGI [12]: > 100 µM | TGI [13]: 87.2 µM | TGI [14]: > 100 µM | TGI [15]: > 100 µM | TGI [16]: > 100 µM | TGI [17]: > 100 µM | TGI [18]: > 100 µM | TGI [20]: > 100 µM | TGI [21]: > 100 µM | TGI [22]: > 100 µM | TGI [23]: > 100 µM | TGI [24]: > 100 µM | TGI [25]: > 100 µM | TGI [26]: > 100 µM | TGI [27]: > 100 µM | TGI [28]: 44.6 µM | TGI [30]: > 100 µM | TGI [31]: > 100 µM | TGI [32]: > 100 µM | TGI [33]: > 100 µM | TGI [34]: > 100 µM | TGI [35]: > 100 µM | TGI [36]: > 100 µM | TGI [37]: > 100 µM | TGI [38]: > 100 µM | TGI [39]: > 100 µM | TGI [41]: > 100 µM | TGI [42]: > 100 µM | TGI [43]: > 100 µM | TGI [44]: > 100 µM | TGI [45]: > 100 µM | TGI [46]: > 100 µM | TGI [48]: > 100 µM | TGI [49]: > 100 µM | TGI [50]: > 100 µM | TGI [51]: > 100 µM | TGI [52]: > 100 µM | TGI [53]: > 100 µM | TGI [54]: > 100 µM | TGI [55]: > 100 µM | TGI [56]: > 100 µM | TGI [57]: > 100 µM | TGI [58]: > 100 µM
